Laboratory results from US20110105326A1, “Method for Enhancing the Rainfastness of Glyphosate” (BASF SE, priority 2008, published 2011).

Assays:
Type in all cases: in vivo
Bidens pilosa (BIDPI) = test: herbicidal action with/without simulated rainfall after treatment, Bidens pilosa; settings: Example 9, flumioxazin 60 g/ha, glyphosate 1080 g/ha, 0.5% v/v Dash in Flumioxazin and mixture
Method: (§1) The enhancement of the rainfastness of glyphosate was determined via the herbicidal activity of the mixture comprising glyphosate and the respective rainfastness enhancing herbicidal component B as well as of the single herbicidal components in relation to simulated rainfall at different time intervals.
(§2) The evaluation of the damage caused by the method and the compositions the according to the present invention and the single herbicidal components was carried out using a scale from 0 to 100%, compared to the untreated control plots. Here, 0 means no damage and 100 means complete destruction of the plants of a respective weed or crop species.
(§3) The application was performed with a fixed spayer system with air pressurization and with a tank spray volume of two liters. The speed of the spray device over the plants was adjusted for a spray volume of 200 I/ha. The spray device was a spray barr with four nozzles from the type Teejet XR 11002VS with a space of 50 cm between each nozzle.
(§4) The application was performed at a weed stage of 6 to 8 leaves. After the application of the formulated herbicides the leaves were washed through rain of 20 mm using a fixed rain simulator system at following time interval: 15 min, 30 min, 1, 2, 3, 4 and 6 hours after treatment.

[1] = test system: Ipomoea grandifolia (IPOGR); test: herbicidal action with/without simulated rainfall after treatment, Ipomoea grandifolia; settings: Example 10, flumioxazin 60 g/ha, glyphosate 1080 g/ha, 0.5% v/v Dash in Flumioxazin and mixture
Method: as §1, §2, §3, §4

[2] = test system: Brachiaria decumbens (BRADE); test: herbicidal action with/without simulated rainfall after treatment, Brachiaria decumbens; set-up: key: % damage vs untreated control; 0 = no damage, 100 = complete destruction
Procedure, shortened: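 Glyphosate alone, component B alone or their mixture sprayed at 200 l/ha on weeds at the 6–8 leaf stage. Simulated rain of 20 mm applied 15 min, 30 min, 1, 2, 3, 4 or 6 h after treatment. Damage scored 0–100% against untreated controls.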

[3] = simulated rainfall 15 min after treatment, 1 DAA
[4] = simulated rainfall 15 min after treatment, 2 DAA
[5] = simulated rainfall 15 min after treatment, 3 DAA
[6] = simulated rainfall 15 min after treatment, 7 DAA
[7] = simulated rainfall 2 hours after treatment, 1 DAA
[8] = simulated rainfall 2 hours after treatment, 2 DAA
[9] = simulated rainfall 2 hours after treatment, 3 DAA
[10] = simulated rainfall 2 hours after treatment, 7 DAA
[11] = without simulated rainfall, 1 DAA
[12] = without simulated rainfall, 2 DAA
[13] = without simulated rainfall, 3 DAA
[14] = without simulated rainfall, 7 DAA

In the case of C#CCN1C(=O)COc2cc(F)c(N3C(=O)C4=C(CCCC4)C3=O)cc21 [Flumioxazin, flumioxazin], the “herbicidal action against BIDPI” value (Bidens pilosa (BIDPI); [3]) is reported as 51%, the “herbicidal action against BIDPI” value (Bidens pilosa (BIDPI); [4]) is reported as 59.66% and the “herbicidal action against BIDPI” value (Bidens pilosa (BIDPI); [5]) is reported as 64%. For the same molecule, the “herbicidal action against BIDPI” value (Bidens pilosa (BIDPI); [6]) was 69%, the “herbicidal action against BIDPI” value (Bidens pilosa (BIDPI); simulated rainfall 30 min after treatment, 1 DAA) was 63.66% and the “herbicidal action against BIDPI” value (Bidens pilosa (BIDPI); simulated rainfall 30 min after treatment, 2 DAA) was 63%. The “herbicidal action against BIDPI” value (Bidens pilosa (BIDPI); simulated rainfall 30 min after treatment, 3 DAA) was 82%, the “herbicidal action against BIDPI” value (Bidens pilosa (BIDPI); simulated rainfall 30 min after treatment, 7 DAA) was 78.33% and the “herbicidal action against BIDPI” value (Bidens pilosa (BIDPI); [7]) was 72.33%. For the same molecule, the “herbicidal action against BIDPI” value (Bidens pilosa (BIDPI); [8]) was 86.66%, the “herbicidal action against BIDPI” value (Bidens pilosa (BIDPI); [9]) was 91.66% and the “herbicidal action against BIDPI” value (Bidens pilosa (BIDPI); [10]) was 96.66%. The “herbicidal action against BIDPI” value (Bidens pilosa (BIDPI); simulated rainfall 6 hours after treatment, 1 DAA) was 66.66%, the “herbicidal action against BIDPI” value (Bidens pilosa (BIDPI); simulated rainfall 6 hours after treatment, 2 DAA) was 84% and the “herbicidal action against BIDPI” value (Bidens pilosa (BIDPI); simulated rainfall 6 hours after treatment, 3 DAA) was 91.33%. For the same molecule, the “herbicidal action against BIDPI” value (Bidens pilosa (BIDPI); simulated rainfall 6 hours after treatment, 7 DAA) was 92.66%, the “herbicidal action against BIDPI” value (Bidens pilosa (BIDPI); [11]) was 80% and the “herbicidal action against BIDPI” value (Bidens pilosa (BIDPI); [12]) was 92%. For the same molecule, the “herbicidal action against BIDPI” value (Bidens pilosa (BIDPI); [13]) was 98%, the “herbicidal action against BIDPI” value (Bidens pilosa (BIDPI); [14]) was 98.66% and the “herbicidal action against IPOGR” value [1, 3] was 20.33%. For the same molecule, the “herbicidal action against IPOGR” value [1, 4] was 75%, the “herbicidal action against IPOGR” value [1, 5] was 82.33% and the “herbicidal action against IPOGR” value [1, 6] was 98.33%. The “herbicidal action against IPOGR” value ([1]; simulated rainfall 15 min after treatment, 14 DAA) was 90%, the “herbicidal action against IPOGR” value [1, 7] was 24.66% and the “herbicidal action against IPOGR” value [1, 8] was 80%. For the same molecule, the “herbicidal action against IPOGR” value [1, 9] was 94.33%, the “herbicidal action against IPOGR” value [1, 10] was 99.66% and the “herbicidal action against IPOGR” value ([1]; simulated rainfall 2 hours after treatment, 14 DAA) was 100%. For the same molecule, the “herbicidal action against IPOGR” value [1, 11] was 19.33%, the “herbicidal action against IPOGR” value [1, 12] was 93.66% and the “herbicidal action against IPOGR” value [1, 13] was 98%. For the same molecule, the “herbicidal action against IPOGR” value [1, 14] was 98.66%, the “herbicidal action against IPOGR” value ([1]; without simulated rainfall, 14 DAA) was 97.66% and the “herbicidal action against BRADE” value ([2]; Example 11, simulated rainfall 15 min after treatment, 1 DAA, flumioxazin 60 g/ha, glyphosate 1080 g/ha, 0.5% v/v Dash in Flumioxazin and mixture) was 28.33%. The “herbicidal action against BRADE” value ([2]; Example 11, simulated rainfall 15 min after treatment, 2 DAA, flumioxazin 60 g/ha, glyphosate 1080 g/ha, 0.5% v/v Dash in Flumioxazin and mixture) was 64.66%, the “herbicidal action against BRADE” value ([2]; Example 11, simulated rainfall 15 min after treatment, 3 DAA, flumioxazin 60 g/ha, glyphosate 1080 g/ha, 0.5% v/v Dash in Flumioxazin and mixture) was 80% and the “herbicidal action against BRADE” value ([2]; Example 11, simulated rainfall 15 min after treatment, 7 DAA, flumioxazin 60 g/ha, glyphosate 1080 g/ha, 0.5% v/v Dash in Flumioxazin and mixture) was 82.33%. For the same molecule, the “herbicidal action against BRADE” value ([2]; Example 11, simulated rainfall 30 min after treatment, 1 DAA, flumioxazin 60 g/ha, glyphosate 1080 g/ha, 0.5% v/v Dash in Flumioxazin and mixture) was 22.33%, the “herbicidal action against BRADE” value ([2]; Example 11, simulated rainfall 30 min after treatment, 2 DAA, flumioxazin 60 g/ha, glyphosate 1080 g/ha, 0.5% v/v Dash in Flumioxazin and mixture) was 53.66% and the “herbicidal action against BRADE” value ([2]; Example 11, simulated rainfall 30 min after treatment, 3 DAA, flumioxazin 60 g/ha, glyphosate 1080 g/ha, 0.5% v/v Dash in Flumioxazin and mixture) was 76%. The “herbicidal action against BRADE” value ([2]; Example 11, simulated rainfall 30 min after treatment, 7 DAA, flumioxazin 60 g/ha, glyphosate 1080 g/ha, 0.5% v/v Dash in Flumioxazin and mixture) was 76.66%, the “herbicidal action against BRADE” value ([2]; Example 11, without simulated rainfall, 1 DAA, flumioxazin 60 g/ha, glyphosate 1080 g/ha, 0.5% v/v Dash in Flumioxazin and mixture) was 14.66% and the “herbicidal action against BRADE” value ([2]; Example 11, without simulated rainfall, 2 DAA, flumioxazin 60 g/ha, glyphosate 1080 g/ha, 0.5% v/v Dash in Flumioxazin and mixture) was 41%. The “herbicidal action against BRADE” value ([2]; Example 11, without simulated rainfall, 3 DAA, flumioxazin 60 g/ha, glyphosate 1080 g/ha, 0.5% v/v Dash in Flumioxazin and mixture) was 42.66%, the “herbicidal action against BRADE” value ([2]; Example 11, without simulated rainfall, 7 DAA, flumioxazin 60 g/ha, glyphosate 1080 g/ha, 0.5% v/v Dash in Flumioxazin and mixture) was 51% and the “herbicidal action against BRADE” value ([2]; simulated rainfall 2 hours after treatment, 1 DAA, Example 11.4) was 16.33. For the same molecule, the “herbicidal action against BRADE” value ([2]; simulated rainfall 2 hours after treatment, 2 DAA, Example 11.4) was 50.66, the “herbicidal action against BRADE” value ([2]; simulated rainfall 2 hours after treatment, 3 DAA, Example 11.4) was 65 and the “herbicidal action against BRADE” value ([2]; simulated rainfall 2 hours after treatment, 7 DAA, Example 11.4) was 80. For the same molecule, the “herbicidal action against BRADE” value ([2]; simulated rainfall 6 hours after treatment, 1 DAA, Example 11.5) was 21.66, the “herbicidal action against BRADE” value ([2]; simulated rainfall 6 hours after treatment, 2 DAA, Example 11.5) was 44.33 and the “herbicidal action against BRADE” value ([2]; simulated rainfall 6 hours after treatment, 3 DAA, Example 11.5) was 63.33. For the same molecule, the “herbicidal action against BRADE” value ([2]; simulated rainfall 6 hours after treatment, 7 DAA, Example 11.5) was 65.
